Data as given in patent publication US6300368A, “Anilide derivatives and antiarrhythmic agents containing the same” (priority 1998, dated 2001).

What follows are compounds tested on aconitin-induced atrial fibrillation (assay: Aconitin-induced atrial fibrillation model in anaesthetized dogs (Pharmacological Trial 1)). Conditions: Canis lupus familiaris; intravenous, anesthetized dogs, as hydrochloride; read-out: minimum dose level which suppresses atrial fibrillation.
Type: in vivo, dog
Description: Pharmacological Trial 1: Evaluation of effectiveness in aconitin-induced atrial fibrillation model (dogs) Evaluation was performed according to K. Hashimoto (Jpn. J. Pharmacol., Vol. 46, 349-358, 1988) as follows:
Method: Dog was anesthetized and thoracotomy was made. Persistent atrial fibrillation was induced by placing a piece of filter paper impregnated with 0.5% aconitin solution (20 to 30 μl) on the right atrium. […] Onset and suppression of atrial fibrillation were monitored electrocardiographically by placing Ag--AgCl bipolar electrode on the right atrial auricle.
Results: Each compound in Examples 1 to 87 suppressed atrial fibrillation at least following dose level (all compounds were used in the form of hydrochloride).

| Compound | minimal effective dose |
| --- | --- |
| Cc1cc(NC(=O)c2ccccc2NS(C)(=O)=O)ccc1OCCNC(C)C.Cl [Example 75, 4'-[2-(Isopropylamino)ethoxy]-2-methanesulfonamido-3'-methylbenzanilide Hydrochloride] | 10 mg/kg |
| CCN(CC)CCOc1ccc(NC(=O)c2ccccc2NS(=O)(=O)CC)cc1.Cl [Example 10, 4'-[2-(Diethylamino)ethoxy]-2-(ethanesulfon amido)benzanilide Hydrochloride] | 3 mg/kg |
| CCNCCOc1ccc(NC(=O)c2ccccc2NS(C)(=O)=O)cc1.Cl [Example 21, 4'-[(2-Ethylamino)ethoxy]-2-(methanesulfonamido) benzanilide Hydrochloride] | 10 mg/kg |
| COCCNCCOc1ccc(NC(=O)c2ccccc2NS(C)(=O)=O)cc1 [Example 42, 2-Methanesulfonamido-4'-[2-[(2-methoxyethyl)amino]ethoxy]benzanilide] | 3 mg/kg |
| COc1cccc(OC)c1C(=O)Nc1ccc(OCCNC2CC2)cc1 [Example 50, 4'-[2-(Cyclopropylamino)ethoxy]-2,6-dimethoxybenzanilide] | 3 mg/kg |
| COc1cccc(OC)c1C(=O)Nc1ccc(OCCNC2CCCCC2)cc1 [Example 55, 4'-[2-(Cyclohexylamino)ethoxy]-2,6-dimethoxybenzanilide] | 0.3 mg/kg |
| COCCC(=O)Nc1ccc(OCCNC(C)C)c(OC)c1 [Example 57, 4'-[2-(Isopropylamino)ethoxy]-3-methoxy-3-methoxypropananilide] | 10 mg/kg |
| Cc1cc(NC(=O)c2ccoc2)ccc1OCCNC(C)C.Cl [Example 79, 4'-[2-(Isopropylamino)ethoxy]-3'-methyl-3-furanilide Hydrochloride] | 10 mg/kg |
| CCCN(CCC)CCOc1ccc(NC(=O)c2c(OC)cccc2OC)cc1 [Example 13, 4'-[2-(Dipropylamino)ethoxy]-2,6-dimethoxybenzanilide] | 10 mg/kg |
| CCNCCOc1c(C)cc(NC(=O)c2ccccc2NS(C)(=O)=O)cc1C.Cl [Example 80, 4'-[2-(Ethylamino)ethoxy]-2-methanesulfonamido-3',5'-dimethylbenzanilide Hydrochloride] | 3 mg/kg |
| COc1cccc(OC)c1C(=O)Nc1ccc(OCCNCC(C)C)cc1 [Example 38, 4'-[2-(Isobutylamino)ethoxy]-2,6-dimethoxybenzanilide] | 3 mg/kg |
| Cc1cc(NC(=O)c2ccccc2S(C)(=O)=O)ccc1OCCNC(C)C.Cl [Example 76, 4'-[2-(Isopropylamino)ethoxy]-2-methanesulfonyl-3'-methylbenzanilide Hydrochloride] | 3 mg/kg |
| COc1cccc(OC)c1C(=O)Nc1ccc(OCCN2CCCCC2)cc1 [Example 18, 2,6-Dimethoxy-4'-(2-piperidinoethoxy)benzanilide] | 10 mg/kg |
| COc1cccc(OC)c1C(=O)Nc1ccc(OCCNC(C)C)c(C)c1.Cl [Example 74, 4'-[2-(Isopropylamino)ethoxy]-2,6-dimethoxy-3'-methylbenzanilide Hydrochloride] | 3 mg/kg |
| COCCC(=O)Nc1cc(C)c(OCCNC(C)C)c(C)c1.Cl [Example 86, 4'-[2-(Isopropylamino)ethoxy]-3-methoxy-3',5'-dimethyl propananilide Hydrochloride] | 3 mg/kg |
| Cc1cc(OCCNC(C)C)ccc1NC(=O)c1ccccc1NS(C)(=O)=O.Cl [Example 70, 4'-[2-(Isopropylamino)ethoxy]-2-methanesulfonamido-2'-methylbenzanilide Hydrochloride] | 3 mg/kg |
| COCCC(=O)Nc1ccc(OCCNC(C)C)cc1C [Example 71, 4'-[2-(Isopropylamino)ethoxy]-3-methoxy-2'-methylpropananilide] | 3 mg/kg |
| Cc1cc(NC(=O)C2CCOCC2)cc(C)c1OCCNC(C)C.Cl [Example 85, 4'-[2-(Isopropylamino)ethoxy]-3',5'-dimethyl-3,4,5,6-tetrahydro-2H-pyran-4-carboxanilide Hydrochloride] | 10 mg/kg |
| COCCNCCOc1ccc(NC(=O)c2ccoc2)cc1.Cl [Example 45, 4'-[2-[(2-Methoxyethyl)amino]ethoxy]-3-furanilide Hydrochloride] | 10 mg/kg |
| CCN(CC)CCOc1ccc(NC(=O)c2c(OC)cccc2OC)cc1OC [Example 63, 4'-[2-(Diethylamino)ethoxy]-2,6-dimethoxy-3-methoxybenzanilide] | 10 mg/kg |
| Cc1cc(NC(=O)c2ccccc2NS(C)(=O)=O)cc(C)c1OCCNC(C)C.Cl [Example 6, 4'-[2-(isopropylamino)ethoxy]-2-methanesulfonamido-3',5'-dimethylbenzanilide Hydrochloride] | 10 mg/kg |

| Compound | minimal effective dose |
| --- | --- |
| COc1cccc(OC)c1C(=O)Nc1cc(C)c(OCCNC(C)C)c(C)c1.Cl [Example 82, 4'-[2-(Isopropylamino)ethoxy]-2,6-dimethoxy-3',5'-dimethyl benzanilide Hydrochloride] | 10 mg/kg |
| CCN(CC)CCOc1ccc(NC(=O)c2ccccc2NS(=O)(=O)C(C)C)cc1.Cl [Example 12, 4'-[2-(Diethylamino)ethoxy]-2-(isopropanesulfonamido)benzanilide Hydrochloride] | 3 mg/kg |
| COc1cc(NC(=O)c2ccoc2)ccc1OCCNC(C)C.Cl [Example 60, 4'-[2-(Isopropylamino)ethoxy]-3'-methoxy-3-furanilide Hydrochloride] | 10 mg/kg |
| Cl.O=C(Nc1ccc(OCCNC2CC2)cc1)C1CCOC1 (stereo not shown) [Example 51, 4'-[2-(Cyclopropylamino)ethoxy]-2,3,4,5-tetrahydro-3-furanilide Hydrochloride] | 3 mg/kg |
| CCNCCOc1ccc(NC(=O)c2ccoc2)cc1.Cl [Example 25, 4'-[(2-Ethylamino)ethoxy]-3-furanilide Hydrochloride] | 10 mg/kg |
| CCNCCOc1ccc(NC(=O)C2CCOC2)cc1.Cl (stereo not shown) [Example 23, 4'-[(2-Ethylamino)ethoxy]-2,3,4,5-tetrahydro-3-furanilide Hydrochloride] | 3 mg/kg |
| CCCCNCCOc1ccc(NC(=O)c2c(OC)cccc2OC)cc1 [Example 37, 4'-[2-(Butylamino)ethoxy]-2,6-dimethoxybenzanilide] | 3 mg/kg |
| COCCCNCCOc1ccc(NC(=O)c2ccccc2NS(C)(=O)=O)cc1.Cl [Example 49, 2-Methanesulfonamido-4'-[2-[(3-methoxypropyl)amino]ethoxy]benzanilide Hydrochloride] | 10 mg/kg |
| CC(C)NCCOc1ccc(NC(=O)C2CCOCC2)cc1.Cl [Example 34, 4'-[2-(Isopropylamino)ethoxy]-3,4,5,6-tetrahydro-2H-pyran-4-carboxanilide Hydrochloride] | 3 mg/kg |
| CC(C)NCCOc1ccc(NC(=O)c2ccccc2S(C)(=O)=O)cc1.Cl [Example 32, 4'-[2-(Isopropylamino)ethoxy]-2-(methanesulfonyl) benzanilide Hydrochloride] | 10 mg/kg |
| COc1cccc(OC)c1C(=O)Nc1ccc(OCCN2CCCC2)cc1 [Example 16, 2,6-Dimethoxy-4'-[2-(1-pyrrolidinyl)ethoxy]benzanilide] | 10 mg/kg |
| CCCS(=O)(=O)Nc1ccccc1C(=O)Nc1ccc(OCCN(CC)CC)cc1.Cl [Example 11, 4'-[2-(Diethylamino)ethoxy]-2-(propanesulfonamido)benzanilide Hydrochloride] | 3 mg/kg |
| Cc1cc(NC(=O)C2CCOCC2)ccc1OCCNC(C)C.Cl [Example 77, 4'-[2-(Isopropylamino)ethoxy]-3'-methyl-3,4,5,6-tetrahydro-2H-pyran-4-carboxanilide Hydrochloride] | 10 mg/kg |
| CCOc1cccc(OCC)c1C(=O)Nc1ccc(OCCN(CC)CC)cc1.Cl [Example 8, 4'-[2-(Diethylamino)ethoxy]-2,6-diethoxybenzanilide Hydrochloride] | 10 mg/kg |
| COCCC(=O)Nc1ccc(OCCNC(C)C)c(C)c1.Cl [Example 78, 4'-[2-(Isopropylamino)ethoxy]-3-methoxy-3'-methylpropananilide Hydrochloride] | 3 mg/kg |
| CCN(CC)CCOc1ccc(NC(=O)c2c(OC)cccc2OC)cc1.Cl [Example 2, 4'-[2-(diethylamino)ethoxy]-2,6-dimethoxybenzanilide Hydrochloride] | 10 mg/kg |
| CCNCCOc1c(C)cc(NC(=O)c2ccccc2S(C)(=O)=O)cc1C.Cl [Example 81, 4'-[2-(Ethylamino)ethoxy]-2-methanesulfonyl-3',5'-dimethylbenzanilide Hydrochloride] | 3 mg/kg |
| CCCNCCOc1ccc(NC(=O)C2CCOCC2)cc1.Cl [Example 28, 4'-[2-(Propylamino)ethoxy]-3,4,5,6-tetrahydro-2H-pyran-4-carboxanilide Hydrochloride] | 3 mg/kg |
| COc1cccc(OC)c1C(=O)Nc1ccc(OCCNC(C)C)cc1C.Cl [Example 69, 4'-[2-(Isopropylamino)ethoxy]-2,6-dimethoxy-2'-methyl benzanilide Hydrochloride] | 3 mg/kg |
| CCOCCNCCOc1ccc(NC(=O)c2ccccc2NS(C)(=O)=O)cc1 [Example 47, 4'-[2-[(2-Ethoxyethyl)amino]ethoxy]-2-(methanesulfonamido)benzanilide] | 3 mg/kg |

Same assay, conditions: intravenous, anesthetized dogs, as hydrochloride

| Compound | minimum dose level which suppresses atrial fibrillation |
| --- | --- |
| 4'-[2-(Dimethylamino)ethoxy]-2,6-diethylbenzanilide [Example 7] | 3.0 mg/kg |

Each compound was assayed on Purkinje's fiber (assay: Effects on ventricle: action potential of Purkinje's fiber from dog right ventricular free wall (Pharmacological Trial 2)). Conditions: Canis lupus familiaris, read-out: suppression of Vmax (maximum rate of rise for action potential).
Type: cell-based
From the text: Pharmacological Trial 2: Evaluation of Effects on Ventricle
Method: Purkinje's fiber specimen excised from the right ventricular free wall of dog, perfused with normal Tyrode solution and driven by electrical stimulation (fundamental frequency=1 Hz) was used. Standard glass microelectrode was used to record action potential.

| Compound | inhibition at 30 µM |
| --- | --- |
| CC(C)N(CCC(C(N)=O)(c1ccccc1)c1ccccn1)C(C)C (stereo not shown) [Disopyramido] | 33% |
